≈ marks a conversion by molar mass, not a printed value.
How the values were obtained:
[1] = Toxicity in brine shrimp; assay type: organism-based; conditions: artemia, in vivo
Artemia = experiment: Toxicity in brine shrimp at 100 ug/mL; assay type: organism-based; conditions: in vivo

Compound	LC50 [1]	Activity (Artemia)
COc1cc2ccc(=O)oc2cc1OC/C=C(\C)CC/C=C(\C)CO [ARTEKEISKEANOL A]	60 µg/mL (≈ 174 µM)	
COc1cc2ccc(=O)oc2cc1OC/C=C(\C)CC/C=C(/C)CO [ARTEKEISKEANOL B]	70 µg/mL (≈ 203 µM)	
COc1cc2ccc(=O)oc2c(OC)c1OC/C=C(\C)CC/C=C(\C)CO [ARTEKEISKEANOL C]		Non-toxic
COc1cc2ccc(=O)oc2c(OC)c1OC/C=C(\C)CC/C=C(/C)CO [ARTEKEISKEANOL D]		Non-toxic

Reference: ChEMBL document CHEMBL1155750, “Four new coumarin derivatives from Artemisia keiskeana” (J Nat Prod, 2001)
